From the supplement of paper PMC10307832

Experiments:
Assay in all cases: relative viability (nuclei count vs DMSO), 5 days (fraction); higher = more cells survive
Lestaurtinib + Alpelisib = compound: C[C@]12O[C@H](C[C@]1(O)CO)n1c3ccccc3c3c4c(c5c6ccccc6n2c5c31)CNC4=O [Lestaurtinib] + Cc1nc(NC(=O)N2CCC[C@H]2C(N)=O)sc1-c1ccnc(C(C)(C)C(F)(F)F)c1 [Alpelisib] (partner 2 µM)
How it was run: (§1)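 Lung cancer cell lines in 1536-well plates were dosed by pin tool the day after seeding, either with one drug alone or with a fixed anchor-drug dose plus five library-drug doses (not always all listed) in √10 steps. After 5 days, cells were fixed and their nuclei stained in one step (final 0.05% Triton X-100, 1% formaldehyde, 1 ug/ml Hoechst), then counted on 4× images. Relative viability is the nuclei count in treated wells divided by that in vehicle wells. Values are medians of duplicate plates.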

TPCA-1 + Decitabine = compound: C1=CC(=CC=C1C2=CC(=C(S2)NC(=O)N)C(=O)N)F [TPCA-1] + Nc1ncn([C@H]2C[C@H](O)[C@@H](CO)O2)c(=O)n1 [Decitabine] (partner 2 µM)
How it was run: as §1

[1] = compound: C1/C(=C\C2=CC=CS2)/C(=O)/C(=C/C3=CC=CS3)/C1 + Nc1nc2[nH]cc(CCc3ccc(C(=O)N[C@@H](CCC(=O)O)C(=O)O)cc3)c2c(=O)[nH]1 [Pemetrexed] (partner 0.2 µM)
How it was run: as §1

Lestaurtinib + Lapatinib = compound: C[C@]12O[C@H](C[C@]1(O)CO)n1c3ccccc3c3c4c(c5c6ccccc6n2c5c31)CNC4=O [Lestaurtinib] + CS(=O)(=O)CCNCc1ccc(-c2ccc3ncnc(Nc4ccc(OCc5cccc(F)c5)c(Cl)c4)c3c2)o1 [Lapatinib] (partner 2 µM)
How it was run: as §1

## UMC-11
Lestaurtinib + Alpelisib; first compound 0.005 µM
  relative viability: 0.967
Lestaurtinib + Alpelisib; first compound 0.01581 µM
  relative viability: 0.968
Lestaurtinib + Alpelisib; first compound 0.05 µM
  relative viability: 0.471
Lestaurtinib + Alpelisib; first compound 0.1581 µM
  relative viability: 0.297
Lestaurtinib + Alpelisib; first compound 0.5 µM
  relative viability: 0.156
TPCA-1 + Decitabine; first compound 0.04 µM
  relative viability: 0.584
TPCA-1 + Decitabine; first compound 0.1265 µM
  relative viability: 0.501
TPCA-1 + Decitabine; first compound 0.4 µM
  relative viability: 0.792
TPCA-1 + Decitabine; first compound 1.265 µM
  relative viability: 0.613
TPCA-1 + Decitabine; first compound 4 µM
  relative viability: 0.439
[1]; first compound 0.2 µM
  relative viability: 0.816
[1]; first compound 0.6325 µM
  relative viability: 0.817
[1]; first compound 2 µM
  relative viability: 0.789
[1]; first compound 6.325 µM
  relative viability: 0.563
[1]; first compound 20 µM
  relative viability: 0.824
Lestaurtinib + Lapatinib; first compound 0.005 µM
  relative viability: 1.01
Lestaurtinib + Lapatinib; first compound 0.01581 µM
  relative viability: 0.921
Lestaurtinib + Lapatinib; first compound 0.05 µM
  relative viability: 0.65
Lestaurtinib + Lapatinib; first compound 0.1581 µM
  relative viability: 0.305
Lestaurtinib + Lapatinib; first compound 0.5 µM
  relative viability: 0.196
